Species on record: Rattus norvegicus
Experiment: In vitro inhibition of Na(+)-gradient-dependent uptake of 32 inorganic phosphate (Pi) by BBM vesicles freshly prepared from the rat renal cortex
Format: functional
Set-up: concentration or dose not given beside the values

SMILES | Inhibition [%]
O=P(O)(O)C(Cl)(Br)P(=O)(O)c1ccccc1 (configuration not stated) | -31
O=P(O)(O)C(Cl)(Cl)P(=O)(O)c1ccccc1 | -39
O=P(O)(O)C(F)P(=O)(O)c1ccccc1 (configuration not stated) | -49
O=P(O)(O)C(F)(F)P(=O)(O)c1ccccc1 | -39
O=P(O)(O)C(Cl)P(=O)(O)c1ccccc1 (configuration not stated) | -30
O=P(O)(O)C(Br)(Br)P(=O)(O)c1ccccc1 | -22
O=C(O)P(=O)(O)O [FOSCARNET] | -63
